The values that follow come from BindingDB's records for doi:10.7270/Q2PZ576Z (The Scripps Research Institute Molecular Screening Center, 2007).

The structures appear in SMILES notation. A value given as a limit tells only on which side of the number the result lay.

For one test, the target named is Sphingosine 1-phosphate receptor 3 (Homo sapiens, UniProt Q99500). In words: S1P3 receptor activation, EC50 – cell-based, NFAT-BLA reporter, dose response (AID 439).
Sphingosine 1-phosphate receptor 3, sequence (Q99500 whole entry): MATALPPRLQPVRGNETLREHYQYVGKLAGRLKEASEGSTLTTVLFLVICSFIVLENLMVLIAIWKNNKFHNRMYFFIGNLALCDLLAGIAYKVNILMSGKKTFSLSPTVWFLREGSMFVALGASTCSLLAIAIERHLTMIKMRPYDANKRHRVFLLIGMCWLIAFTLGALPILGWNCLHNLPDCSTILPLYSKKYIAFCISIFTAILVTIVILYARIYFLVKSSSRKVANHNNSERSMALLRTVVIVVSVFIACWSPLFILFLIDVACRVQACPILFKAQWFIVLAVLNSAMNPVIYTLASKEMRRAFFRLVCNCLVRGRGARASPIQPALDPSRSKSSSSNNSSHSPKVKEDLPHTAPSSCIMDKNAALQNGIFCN
Details: not given
With `c1ccc(-c2nnc(N3CCOCC3)nc2-c2ccccc2)cc1` [4-(5,6-diphenyl-1,2,4-triazin-3-yl)morpholine], the EC50 amounted to 6.63 µM.

For the compound `CCCc1cc(C(=O)N(C2CCCCC2)C2CCCCC2)no1` [MLS000116372], the EC50 is 2.7 µM.

With `CCCCC(=O)NC(Nc1nc(C2CC2)cs1)(C(=O)OCC)C(F)(F)F` (stereo unspecified) [2-[(4-cyclopropyl-2-thiazolyl)amino]-3,3,3-trifluoro-2-(1-oxopentylamino)propanoic acid ethyl ester], a half-maximal response (EC50) required 9.87 µM.

For `Cc1cc(C)n(-c2nc(NCC(C)O)c3c4c(sc3n2)CCCC4)n1` (stereo unspecified) [1-[[2-(3,5-dimethyl-1-pyrazolyl)-5,6,7,8-tetrahydro-[1]benzothiolo[2,3-d]pyrimidin-4-yl]amino]-2-propanol], the EC50 came out at 7.79 µM.

On to `CCCCn1c(NC(=O)c2ccc(F)cc2)c(C#N)c2nc3ccccc3nc21` [MLS000055622], for which the EC50 was greater than 45 µM.

Turning to `Cc1cc(C)n(-c2nc(NCCCO)c3c4c(sc3n2)CCCC4)n1` [3-[[2-(3,5-dimethyl-1-pyrazolyl)-5,6,7,8-tetrahydro-[1]benzothiolo[2,3-d]pyrimidin-4-yl]amino]-1-propanol], it took 4.28 µM to reach a half-maximal effect (EC50).

With `CCCSc1nc(N2CCOCC2)c2c(c1C#N)CCCC2` [1-(4-morpholinyl)-3-(propylthio)-5,6,7,8-tetrahydroisoquinoline-4-carbonitrile], the EC50 worked out at 4.34 µM.

For the compound `Nc1c(C(=O)NCc2ccco2)c2nc3ccccc3nc2n1CCN1CCCCC1` [2-amino-N-(2-furanylmethyl)-1-[2-(1-piperidinyl)ethyl]-3-pyrrolo[3,2-b]quinoxalinecarboxamide], the EC50 is greater than 45 µM.

As to `C=CCn1c(=O)c(C#N)cc2c(=O)n3ccccc3nc21` [SMR000029848], the EC50 is greater than 45 µM.

The compound `O=C(Cc1cccs1)NCc1cn2ccccc2n1` [MLS000103862] gave a 50% effective concentration (EC50) greater than 45 µM.

`Clc1ccc2nc(N3CCNCC3)nc(-c3ccccc3)c2c1` showed a concentration giving a half-maximal response (EC50) greater than 45 µM.

`O=C(OCCN1C(=O)c2ccccc2C1=O)c1cccc(OC(F)F)c1` [2-(1,3-dioxoisoindol-2-yl)ethyl 3-(difluoromethoxy)benzoate] came in with a concentration for a half-maximal effect (EC50) greater than 45 µM.

The compound `Cc1ccc(-n2c(=O)[nH]cc(C(=O)Nc3ccc4c(c3)OCCO4)c2=O)cc1C` [N-(2,3-dihydro-1,4-benzodioxin-6-yl)-3-(3,4-dimethylphenyl)-2,4-bis(oxidanylidene)-1H-pyrimidine-5-carboxamide] returned an EC50 greater than 45 µM.

The compound `Cc1ccc2nc3c(cc(C#N)c(=O)n3-c3nccs3)c(=O)n2c1` [SMR000047276] showed an EC50 greater than 45 µM.

Compound `Cc1cc(C)n(-c2nc(NCCO)c3c4c(sc3n2)CCCC4)n1` [SMR000046729] showed an EC50 of 6.69 µM.

With `c1ccc(C(Cc2nc(-c3ccncc3)no2)c2ccccc2)cc1` [4-[5-(2,2-diphenylethyl)-1,2,4-oxadiazol-3-yl]pyridine], the EC50 turned out to be 5.24 µM.

In turn, `CCOC(=O)c1cc2ccc(OC(=O)c3ccco3)cc2oc1=O` [ethyl 7-(2-furoyloxy)-2-oxo-2H-chromene-3-carboxylate] yielded an EC50 of 7.18 µM.

Consider `Cc1cc(C)nc(-n2nc(C)c(Sc3ccc(F)cc3)c2N)n1` [2-(4,6-dimethyl-2-pyrimidinyl)-4-[(4-fluorophenyl)thio]-5-methyl-3-pyrazolamine], for which a half-maximal effect (EC50) was put at 2.34 µM.

Compound `Cc1cc(C(=O)N(C2CCCCC2)C2CCCCC2)no1` [MLS000087301] displayed an EC50 of 25.6 µM.

Compound `Cc1nc(-c2ccccc2)cc(N2CCCC2)n1` [2-methyl-4-phenyl-6-(1-pyrrolidinyl)pyrimidine] registered an EC50 greater than 45 µM.

The compound `Cc1ccc(-c2cc(-c3ccc(Cl)cc3)c(C#N)c(N)n2)o1` [2-azanyl-4-(4-chlorophenyl)-6-(5-methylfuran-2-yl)pyridine-3-carbonitrile] returned an EC50 greater than 45 µM.

In turn, `CCOC(=O)N1CCN(C(=O)c2nn(-c3cc(OC)cc(OC)c3)c(=O)c3ccccc23)CC1` [4-[3-(3,5-dimethoxyphenyl)-4-keto-phthalazine-1-carbonyl]piperazine-1-carboxylic acid ethyl ester] had an EC50 greater than 45 µM.

For the compound `CCOC(=O)C1C(=N)OC2=C(C(=O)CCC2)C1c1ccccc1OCC` (stereo unspecified) [2-amino-4-(2-ethoxyphenyl)-5-oxo-4,6,7,8-tetrahydro-1-benzopyran-3-carboxylic acid ethyl ester], the EC50 turned out to be 18.5 µM.

Still in this test, the particulars now being: inactive by the depositor's call.
`COc1ccc(CCn2c(N)c(C(=O)NCc3ccco3)c3nc4ccccc4nc32)cc1OC` [2-amino-1-[2-(3,4-dimethoxyphenyl)ethyl]-N-(2-furanylmethyl)-3-pyrrolo[3,2-b]quinoxalinecarboxamide] gave an EC50 of 45 µM.

`c1ccc(-c2nc3nonc3nc2-c2ccccc2)cc1` [5,6-diphenyl-[1,2,5]oxadiazolo[3,4-b]pyrazine]: the EC50 is 41.6 µM.

Regarding `CCOc1ccc(-c2noc(-c3ccncc3)n2)cc1OCC` [3-(3,4-diethoxyphenyl)-5-(4-pyridyl)-1,2,4-oxadiazole], the EC50 came out at 11.6 µM.

Compound `Cc1cccc2cc3c(NC(=O)c4ccccn4)nn(C)c3nc12` [MLS000082760] showed an EC50 of 127 µM.

In turn, `O=C(Oc1ccc(-c2nnco2)cc1)N(c1ccccc1)c1ccccc1` [4-(1,3,4-oxadiazol-2-yl)phenyl diphenylcarbamate] registered an EC50 of 14.1 µM.

`CCCCCCn1c(N)c(C(=O)NCCN2CCOCC2)c2nc3ccccc3nc21` [2-amino-1-hexyl-N-(2-morpholin-4-ylethyl)pyrrolo[3,2-b]quinoxaline-3-carboxamide]: the EC50 is 42.3 µM.

`Cn1c(=O)c2c(-c3ccccc3)n(C3CCCCC3)cc2n(C)c1=O` [6-cyclohexyl-1,3-dimethyl-5-phenyl-pyrrolo[3,4-d]pyrimidine-2,4-dione] displayed an EC50 of 31.2 µM. This EC50 and that of the compound before are within 1.5-fold of each other.

As for `CCC(C)c1ccc2oc(-c3ccc(NC(=O)c4nnc[nH]4)cc3)nc2c1` (stereo unspecified) [N-[4-(5-sec-butyl-1,3-benzoxazol-2-yl)phenyl]-1H-1,2,4-triazole-3-carboxamide], it took 19.3 µM to reach a half-maximal effect (EC50).

As to `O=C(NC1=NCCS1)c1cc(-c2ccccc2)nn1-c1ccccc1`, the EC50 turned out to be 41.7 µM.

Take `COc1ccccc1Oc1cc(C#N)c(C#N)cc1-n1nnc2ccccc21` [4-(1-benzotriazolyl)-5-(2-methoxyphenoxy)benzene-1,2-dicarbonitrile]: a half-maximal effect (EC50) was put at 17.2 µM.

`CCCn1c(=O)c2ccccc2n2c(SCc3c(C(=O)OCC)oc4ccccc34)nnc12` [3-[[(5-keto-4-propyl-[1,2,4]triazolo[4,3-a]quinazolin-1-yl)thio]methyl]coumarilic acid ethyl ester] showed an EC50 of 23.5 µM. The EC50 values of the last two compounds are within 1.5-fold of each other.

Compound `Cc1cccn2c(=O)c3cc(C(=O)NC(C)c4ccccc4)c(=N)n(CCCn4ccnc4)c3nc12` (stereo unspecified) [1-(3-imidazol-1-ylpropyl)-2-imino-10-methyl-5-oxo-N-(1-phenylethyl)dipyrido[3,4-c:1',2'-f]pyrimidine-3-carboxamide] registered an EC50 of 17.4 µM.

`Cc1cc(C)n(-c2nc(NCc3cccnc3)c3c4c(sc3n2)COC(C)(C)C4)n1` [2-(3,5-dimethyl-1-pyrazolyl)-6,6-dimethyl-N-(3-pyridinylmethyl)-5,8-dihydropyrano[4,5]thieno[1,2-c]pyrimidin-4-amine] yielded an EC50 of 15.3 µM.

In the case of `CCSc1nc(N2CCOCC2)c2c(c1C#N)CCCC2` [3-(ethylthio)-1-(4-morpholinyl)-5,6,7,8-tetrahydroisoquinoline-4-carbonitrile], the EC50 was determined as 14.5 µM.

Consider `Cc1ccc(C(C)C)c(OCc2nc(-c3nonc3N)no2)c1` [4-[5-[(5-methyl-2-propan-2-yl-phenoxy)methyl]-1,2,4-oxadiazol-3-yl]-1,2,5-oxadiazol-3-amine], for which the response was half-maximal at 74.6 µM (EC50).

On to `OCCN1CCN(c2nc(-c3ccccc3)c3cc(Cl)ccc3n2)CC1` [2-[4-(6-chloranyl-4-phenyl-quinazolin-2-yl)piperazin-1-yl]ethanol], for which the concentration giving a half-maximal response (EC50) came to 108 µM.

`c1ccc(C(Cc2nc(-c3ccccn3)no2)c2ccccc2)cc1` [5-(2,2-diphenylethyl)-3-(2-pyridinyl)-1,2,4-oxadiazole] yielded an EC50 of 21.1 µM.

For the compound `Nc1c(C(=O)NCCN2CCOCC2)c2nc3ccccc3nc2n1CCc1ccccc1` [2-amino-N-[2-(4-morpholinyl)ethyl]-1-(2-phenylethyl)-3-pyrrolo[3,2-b]quinoxalinecarboxamide], the response was half-maximal at 178 µM (EC50).

For the compound `COc1ccc(CCn2c(C)cc(C(=O)CSc3nnnn3C)c2C)cc1` [1-[1-[2-(4-methoxyphenyl)ethyl]-2,5-dimethyl-3-pyrrolyl]-2-[(1-methyl-5-tetrazolyl)thio]ethanone], the response was half-maximal at 18.6 µM (EC50). This EC50 is about 9.6-fold lower than that of the compound before.

Consider `O=c1c2ccccc2nnn1CSc1nnc(C2COc3ccccc3O2)n1-c1ccccc1` (stereo unspecified) [3-[[5-(2,3-dihydro-1,4-benzodioxin-3-yl)-4-phenyl-1,2,4-triazol-3-yl]sulfanylmethyl]-1,2,3-benzotriazin-4-one], for which the EC50 stood at 29.5 µM.

The compound `CC(C)OCCCNC(=O)c1c(N)n(Cc2cccs2)c2nc3ccccc3nc12` [2-amino-N-(3-propan-2-yloxypropyl)-1-(thiophen-2-ylmethyl)pyrrolo[3,2-b]quinoxaline-3-carboxamide] had an EC50 of 22.2 µM.

Regarding `O=C(NCc1ccco1)c1cc2ccc(O)cc2oc1=O` [MLS000049147], the EC50 worked out at 17.7 µM.

With `Nc1c(C(=O)NCCc2ccccc2)c2nc3ccccc3nc2n1CCN1CCOCC1` [2-amino-1-(2-morpholin-4-ylethyl)-N-(2-phenylethyl)pyrrolo[3,2-b]quinoxaline-3-carboxamide], the concentration for a half-maximal effect (EC50) is 37.5 µM. Compared with the last compound, the EC50 is about 2.1-fold higher.
